The record followed here is the NIST ThermoML archive (doi:10.1016/j.fluid.2015.06.029).

A short description of the data set: refractive index (Na D-line) (dimensionless). Particulars: 303.15 K; 101.33 kPa; Liquid; Standard Abbe refractometry.

Numbers after ± are expanded uncertainties.

As to `CCCCC(=O)O` [pentanoic acid], the refractive index turned out to be 1.4047 ± 0.0009.

In the case of `CC(C)CC(=O)O` [3-methylbutanoic acid], the refractive index came to 1.3997 ± 0.0009.

As for `CCCC(=O)O` [butanoic acid], the refractive index is recorded as 1.3947 ± 0.0009.

For the compound `CCC(=O)O` [propanoic acid], the refractive index stood at 1.3829 ± 0.0009.

As for `CCCCC` [pentane], the refractive index is 1.3523 ± 0.0009.

Turning to `CC(C)C(=O)O` [2-methylpropanoic acid], the refractive index turned out to be 1.3893 ± 0.0009.

For the compound `O=S1(=O)CCCC1` [sulfolane], the refractive index amounted to 1.4823 ± 0.0009.

`CC(=O)O` [acetic acid]: the refractive index came to 1.3716 ± 0.0009.

One may read the refractive index as a measure of how strongly the sample bends light.
